Source: the supplement of paper PMC10307832

Legend:
Experiment in all cases: relative viability (nuclei count vs DMSO), 5 days (fraction); higher = more cells survive
[1] = compound: Cn1cc(-c2cnn3c(N)c(Br)c([C@@H]4CCCNC4)nc23)cn1 + COc1cc2c(Oc3ccc(NC(=O)C4(C(=O)Nc5ccc(F)cc5)CC4)cc3F)ccnc2cc1OCCCN1CCOCC1 [Foretinib] (partner 0.25 µM)
Outline: (§1)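 The day after seeding in 1536-well plates, lung cancer cell lines were treated by pin tool with a single drug, or with a fixed anchor-drug dose together with five library-drug doses (not always all listed) in √10 steps. After 5 days, a combined fix-and-stain solution (final 0.05% Triton X-100, 1% formaldehyde, 1 ug/ml Hoechst) was added. Nuclei counted on 4× images gave relative viability as treated counts over vehicle counts, reported as the median of duplicate plates.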

[2] = compound: Cn1cc(-c2cnn3c(N)c(Br)c([C@@H]4CCCNC4)nc23)cn1 + Cc1nc(NC(=O)N2CCC[C@H]2C(N)=O)sc1-c1ccnc(C(C)(C)C(F)(F)F)c1 [Alpelisib] (partner 2 µM)
Outline: as §1

[3] = compound: Cn1cc(-c2cnn3c(N)c(Br)c([C@@H]4CCCNC4)nc23)cn1 + O=C(c1cc(Cc2n[nH]c(=O)c3ccccc23)ccc1F)N1CCN(C(=O)C2CC2)CC1 [Olaparib] (partner 8 µM)
Outline: as §1

[4] = compound: Cn1cc(-c2cnn3c(N)c(Br)c([C@@H]4CCCNC4)nc23)cn1 + Nc1nc2[nH]cc(CCc3ccc(C(=O)N[C@@H](CCC(=O)O)C(=O)O)cc3)c2c(=O)[nH]1 [Pemetrexed] (partner 0.2 µM)
Outline: as §1

Cell Line	relative viability ([1]; first compound 0.05 µM)	relative viability ([1]; first compound 0.1581 µM)	relative viability ([1]; first compound 0.5 µM)	relative viability ([1]; first compound 1.581 µM)	relative viability ([1]; first compound 5 µM)	relative viability ([2]; first compound 0.05 µM)	relative viability ([2]; first compound 0.1581 µM)	relative viability ([2]; first compound 0.5 µM)	relative viability ([2]; first compound 1.581 µM)	relative viability ([2]; first compound 5 µM)	relative viability ([3]; first compound 0.05 µM)	relative viability ([3]; first compound 0.1581 µM)	relative viability ([3]; first compound 0.5 µM)	relative viability ([3]; first compound 1.581 µM)	relative viability ([3]; first compound 5 µM)	relative viability ([4]; first compound 0.05 µM)	relative viability ([4]; first compound 0.1581 µM)	relative viability ([4]; first compound 0.5 µM)	relative viability ([4]; first compound 1.581 µM)	relative viability ([4]; first compound 5 µM)
H3255	0.843	0.998	0.998	0.971	0.83	0.776	0.722	0.684	0.626	0.494	0.567	0.615	0.604	0.509	0.39	0.537	0.536	0.56	0.483	0.461
EPLC-272H	0.794	0.723	0.603	0.514	0.25	0.93	0.902	1.01	0.956	0.824	0.709	0.683	0.294	0.279	0.215	0.268	0.186	0.139	0.106	0.098
PC-3 [JPC-3]	1.02	1.2	0.997	1.03	1.06	1.12	1.13	1.13	0.965	1.12	1.14	1.02	–	1.09	1.15	0.698	1.03	–	1.09	0.82
NCI-H1793	0.71	0.806	0.63	0.683	0.518	0.773	0.878	0.709	0.666	0.58	1.02	1.08	0.921	0.718	0.472	1.02	0.838	0.79	0.766	0.49
EKVX	0.749	0.925	0.699	0.816	0.469	0.908	1.05	0.91	0.694	0.753	0.761	0.958	0.872	0.767	0.707	0.497	0.293	0.307	0.241	0.206
ChaGo-K-1	0.937	0.934	0.873	0.888	0.78	–	–	–	–	–	0.407	0.511	0.419	0.428	0.463	0.259	0.248	0.273	0.28	0.247
NCI-H23	1.02	0.987	0.907	0.615	0.53	0.741	0.717	0.613	0.667	0.227	0.283	0.286	0.229	0.227	0.174	0.582	0.539	0.504	0.275	0.19
EMC-BAC-2	1	1.11	1.02	0.977	0.926	0.778	0.885	0.66	0.708	0.81	0.492	0.521	0.47	0.383	0.475	0.478	0.386	0.399	0.433	0.462
LOU-NH91	0.928	0.879	0.91	0.926	0.781	0.721	0.664	0.695	0.658	0.561	0.938	0.933	0.867	0.774	0.778	0.398	0.289	0.254	0.25	0.64
LU99A	0.805	0.768	0.821	0.706	0.716	0.534	0.541	0.492	0.491	0.388	0.244	0.235	0.236	0.221	0.163	0.19	0.144	0.139	0.124	0.129
NCI-H1395	0.99	0.94	0.914	0.589	0.455	1.18	0.685	0.874	0.66	0.435	0.432	0.445	0.395	0.376	0.372	0.695	0.445	0.535	0.578	0.446
NCI-H460	0.957	1.08	1.03	0.914	0.666	0.59	0.459	0.509	0.155	0.0851	0.341	0.195	0.38	0.233	0.127	0.0569	0.0582	0.0504	0.0664	0.0552
201T	0.999	0.952	1.26	0.554	0.265	1.04	1.02	1.05	0.98	0.909	0.888	0.836	0.803	0.743	0.719	0.362	0.327	0.315	0.264	0.294
NCI-H1944	0.895	0.953	0.834	0.799	0.689	0.808	0.797	0.825	0.717	0.626	0.408	0.448	0.374	0.378	0.349	0.688	0.511	0.541	0.337	0.152
NCI-H2405	0.978	0.952	1.05	0.989	0.919	0.816	0.753	0.814	0.777	0.542	0.875	0.954	0.901	0.857	0.659	0.968	1.05	1.05	0.991	0.709
NCI-H1703	0.334	0.288	0.337	0.196	0.178	0.374	0.318	0.259	0.161	0.139	0.416	0.364	0.364	0.233	0.123	–	–	–	–	–
NCI-H1755	0.997	0.943	0.91	0.95	0.821	1.03	1.05	0.817	0.873	0.879	0.964	0.989	0.931	0.989	0.847	0.398	0.397	0.401	0.373	0.272
NCI-H2087	1.18	1.22	0.989	1.32	1	1.29	1.17	1.21	0.98	0.938	0.766	0.735	0.623	0.624	0.676	0.671	0.637	0.615	0.582	0.647

Cell Line	relative viability ([1]; first compound 0.05 µM)	relative viability ([1]; first compound 0.1581 µM)	relative viability ([1]; first compound 0.5 µM)	relative viability ([1]; first compound 1.581 µM)	relative viability ([1]; first compound 5 µM)	relative viability ([2]; first compound 0.05 µM)	relative viability ([2]; first compound 0.1581 µM)	relative viability ([2]; first compound 0.5 µM)	relative viability ([2]; first compound 1.581 µM)	relative viability ([2]; first compound 5 µM)	relative viability ([3]; first compound 0.05 µM)	relative viability ([3]; first compound 0.1581 µM)	relative viability ([3]; first compound 0.5 µM)	relative viability ([3]; first compound 1.581 µM)	relative viability ([3]; first compound 5 µM)	relative viability ([4]; first compound 0.05 µM)	relative viability ([4]; first compound 0.1581 µM)	relative viability ([4]; first compound 0.5 µM)	relative viability ([4]; first compound 1.581 µM)	relative viability ([4]; first compound 5 µM)
NCI-H2228	0.747	0.942	0.671	0.738	0.433	0.794	1.15	0.87	0.541	0.372	0.546	0.688	0.675	0.508	0.359	0.315	0.33	0.311	0.22	0.155
NCI-H727	0.949	0.905	0.967	0.882	0.527	0.575	0.535	0.534	0.412	0.361	0.754	0.873	0.68	0.646	0.559	–	–	–	–	–
NCI-H650	1.14	1.03	1.02	1	0.881	1.16	1.22	1.23	1.05	0.858	0.427	0.557	0.523	0.551	0.397	0.893	0.93	0.92	0.919	0.63
NCI-H520	0.671	0.836	0.751	0.664	0.58	0.86	0.887	0.763	0.64	0.785	0.353	0.367	0.302	0.326	0.236	0.596	0.584	0.554	0.452	0.296
EBC-1	0.107	0.0968	0.0834	0.0926	0.0939	0.902	0.913	0.704	0.774	0.753	0.846	0.854	0.726	0.75	0.616	–	–	–	–	–
NCI-H661	1.05	0.991	0.979	1.02	0.932	0.596	0.611	0.521	0.667	0.297	0.874	0.83	0.745	0.511	0.538	0.98	0.635	0.667	0.754	0.588
NCI-H1299	1.08	1.14	1.12	0.988	0.833	1.03	1.13	1.09	1.05	0.954	0.981	0.968	1	0.738	0.472	–	–	–	–	–
LK-2	1.18	1.27	0.887	–	0.901	1.07	0.945	1.11	0.618	0.595	0.664	0.648	0.771	0.568	0.373	0.271	0.309	0.271	0.278	0.124
NCI-H1993	0.747	0.806	0.483	0.667	0.657	0.632	0.7	–	0.66	0.708	0.959	1.05	1.01	0.969	1.1	0.572	0.595	0.693	0.482	0.575
NCI-H1648	–	–	–	–	–	–	–	–	–	–	0.64	0.829	1.1	1.08	0.583	0.686	0.673	0.68	0.715	0.668
NCI-H1650	–	1.3	1.2	1.05	0.658	–	–	–	–	–	0.625	0.82	0.851	0.616	0.444	0.368	0.288	0.292	0.239	0.224
SW 900	0.828	0.817	0.78	0.768	0.39	–	–	–	–	–	0.897	0.97	0.758	0.8	0.616	0.449	0.468	0.493	0.295	0.305
IA-LM	1.19	1.23	1.06	0.861	0.54	0.757	1.05	0.574	0.591	0.589	0.964	0.932	0.902	0.643	0.358	–	–	–	–	–
NCI-H1563	0.939	1.02	0.841	0.921	0.875	0.827	0.835	0.935	0.8	0.762	–	–	–	–	–	0.754	0.647	0.782	0.753	0.532
HCC-44	–	–	–	–	–	0.876	0.899	0.759	0.747	0.786	1.01	0.975	1	0.91	1.01	0.608	0.586	0.674	0.321	0.369
ABC-1	0.951	1.07	1.02	0.872	0.4	1.14	1.03	0.814	0.917	0.401	–	1.1	1.17	0.783	0.456	–	–	–	–	–
NCI-H522	–	–	–	–	–	–	–	–	–	–	0.674	0.749	0.68	0.523	0.633	0.938	0.913	1.02	1.01	0.865
NCI-H1792	–	–	–	–	–	0.883	0.887	0.411	0.408	0.488	0.637	0.368	0.378	–	0.34	0.847	1.19	0.795	–	0.55
